This is an account of results in patent US20260001886A1, “ENPP1 INHIBITORS I” (RE Ventures I, LLC, priority 2024, published 2026).

Like-named read-outs stand apart in the source and are kept apart here.

Data set [1] deals with T1, Human ENPP1 (Homo sapiens (Human), UniProt P22413). As to the kind of experiment: biochemical.
Method: (§1) ENPP1 catalyses the hydrolysis of ATP into AMP+PPi. AMP production was monitored using Bellbrooks Transcreener AMP/GMP TR-FRET assay kit (Cat No. 3020-10K) according to the manufacturer's instructions. The assay was run with 50 mM Tris pH 7.5, 5 mM MgCl2, 150 mM NaCl, 0.005% Tween20 and distilled H2O. Antibody and tracer were diluted to 2 nM. […] Mouse ENPP1 was run at 15 pM with ATP at 400 nM. AMP produced in the assay by ENPP1 activity competes with a far-red tracer labelled AMP bound to an AMP specific antibody resulting in a decrease in TR-FRET. ENPP1 inhibition reduces AMP production and increases the TR-FRET signal.
Data set [2] deals with T2, human CA-II (CA2) (Homo sapiens (Human), UniProt P00918). As to the kind of experiment: biochemical.
Method: (§2) Cytiva Biacore S200, T200 and 3000 machines were used for all SPR experiments. […] For carbonic anhydrases, data were collected at a constant temperature of 25° C. Human CA-I (CA1) or human CA-II (CA2) was captured via standard EDC/NHS protocol on a Biacore CM5 chip using standard protocols in HBS-N buffer (10 mM HEPES (pH 7.4), 150 mM NaCl) at ˜2000 RU. The experiments were run in PBS buffer containing 0.05% Tween 20 and 3% DMSO. All compounds were initially screened at concentrations ranging from 23 nM to 50 µM or 4.6 nM to 10 µM, injecting from the lowest to highest concentrations and adjusting appropriately for each compound for repeat experiments. Scrubber 2 (Biologic software) was used to process and analyse SPR data. […] Data for the inhibitors were referenced to those for a blank surface and blank injections to normalise for non-specific binding and drift. A DMSO calibration was run to remove excluded volume effect of binding responses between reference and target surface.
Data set [3] addresses T3, human CA-I (CA1) (Homo sapiens (Human), UniProt P00915). Kind of data set: biochemical.
Method: as §2
Data set [4] has as its target ENPP1 expressed by MCF-7 cells (Homo sapiens (Human), UniProt P22413). As to the kind of experiment: cell-based.
Method: ENPP1 inhibition was assessed in a human cellular co-culture assay using THP1-Dual interferon reporter cells from InvivoGen (Cat No. thpd-nfis), see Goswami et al., 2022, and MCF-7 cancer cells.
MCF-7 cells were seeded at 10,000 cells/well in a 96 well plate and 24 h later compounds were added in DMEM+GlutaMAX media+2% Hyclone FBS, with a final DMSO of 0.2%. 2′3′-cGAMP was added at a final concentration of 10 μM and incubated for 30 mins at 37° C. 20,000 THP-1 cells were added per well and incubated for 48 h. IFN response was measured by Quanti-Luc Gold according to the manufacturer's instructions using 15 μL Quanti-Luc Gold per well. Luminescence was measured on an EnSight reader (PerkinElmer).
In data set [5] the target is T1, Human ENPP1.
Method: as §1
The test system of another data set is Alpl^Prx1 mouse. As to the kind of experiment: In vivo Model 1: Alpl^Prx1 mouse model of hypophosphatasia (HPP).
The target of data set [6] is T2, human CA-II (CA2). Kind of data set: Surface plasmon resonance, carbonic anhydrase II. The settings on record: 25° C., CM5 chip. A general note: Surface plasmon resonance follows binding to a sensor surface in real time, without labels.
Method: as §2
In data set [7] the target is T3, human CA-I (CA1). As to the kind of experiment: Surface plasmon resonance, carbonic anhydrase I. As to conditions: 25° C., CM5 chip.
Method: as §2
The mark [8] stands for this setting: oral in diet, after 100 days of dosing.

T3 sequence (P00915 whole entry): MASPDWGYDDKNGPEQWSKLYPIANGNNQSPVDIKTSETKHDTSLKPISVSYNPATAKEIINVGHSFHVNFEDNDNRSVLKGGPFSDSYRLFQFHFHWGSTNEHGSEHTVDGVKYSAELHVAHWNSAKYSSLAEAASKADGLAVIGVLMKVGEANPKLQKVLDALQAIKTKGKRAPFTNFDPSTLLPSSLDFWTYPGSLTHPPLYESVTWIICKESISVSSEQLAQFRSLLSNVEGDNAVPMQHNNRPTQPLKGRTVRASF
Sequence of ENPP1 expressed by MCF-7 cells (P22413 whole entry): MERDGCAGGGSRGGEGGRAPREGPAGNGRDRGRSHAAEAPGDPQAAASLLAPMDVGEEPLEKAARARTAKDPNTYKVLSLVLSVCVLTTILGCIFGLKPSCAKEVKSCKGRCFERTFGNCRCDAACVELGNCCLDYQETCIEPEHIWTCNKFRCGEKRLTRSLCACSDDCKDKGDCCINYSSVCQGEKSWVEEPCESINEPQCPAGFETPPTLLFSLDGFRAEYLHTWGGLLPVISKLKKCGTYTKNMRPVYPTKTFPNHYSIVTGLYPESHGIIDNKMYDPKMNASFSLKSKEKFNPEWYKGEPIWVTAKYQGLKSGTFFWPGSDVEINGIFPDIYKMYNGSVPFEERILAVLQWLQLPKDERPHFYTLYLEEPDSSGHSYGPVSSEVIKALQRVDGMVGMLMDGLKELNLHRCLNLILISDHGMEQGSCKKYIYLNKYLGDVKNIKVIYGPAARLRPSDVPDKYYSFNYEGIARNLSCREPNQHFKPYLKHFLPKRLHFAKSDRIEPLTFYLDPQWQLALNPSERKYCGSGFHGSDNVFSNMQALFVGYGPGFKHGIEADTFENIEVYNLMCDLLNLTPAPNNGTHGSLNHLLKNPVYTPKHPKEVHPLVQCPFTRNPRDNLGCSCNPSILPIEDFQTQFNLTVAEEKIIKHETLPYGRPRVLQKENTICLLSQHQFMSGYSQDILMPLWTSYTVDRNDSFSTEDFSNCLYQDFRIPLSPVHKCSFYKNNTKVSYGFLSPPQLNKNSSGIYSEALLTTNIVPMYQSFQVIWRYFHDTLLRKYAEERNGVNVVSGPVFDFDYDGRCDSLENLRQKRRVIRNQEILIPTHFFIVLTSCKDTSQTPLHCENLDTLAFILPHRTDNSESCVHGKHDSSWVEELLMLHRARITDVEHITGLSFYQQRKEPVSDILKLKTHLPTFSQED
T1 sequence (P22413 whole entry): as above
Method for Alpl^Prx1 mouse: Bone tissues were fixed in 4% PFA.
PPi levels were measured using a standard method involving ATPsulfurylase. […] ATP converted from PPi in the samples was mixed with BacTiter-Glo (Promega) and luminescence was quantified in duplicated reactions using a iD3X plate reader (Molecular Device). Values obtained from reactions without ATPsulfurylase were subtracted to eliminate ATP which possibly existed in the plasma samples.
Plasma chemistry was performed using Vetscan VS2 analyzer with Comprehensive Diagnostic Profiles rotor (Abaxis). […] Mouse OPN was measured with Quantikine®-ELISA kit (R&D).
Radiographic images were obtained by using XPERT 80-Kubtec Scientific.
Three stained sections per mouse were analyzed by Keyence microscope to obtain an average value of mineralized area. Five mice per genotype were used (n=5).

As usually defined, the EC50 is the concentration that produces a half-maximal response. As usually defined, the Kd is a measure of binding affinity in units of concentration. A low value points to a tighter complex. Consider `CCS(=N)(=O)c1ccc(Cn2cc(C(C)C)c(=O)n3nc(C4CC4)nc23)cc1` (racemic) [56 Rac], for which, on Human ENPP1 [1], a half-maximal response (EC50) required 0.00251 µM. The equilibrium dissociation constant (Kd) on human CA-II (CA2) [2] is 31.6 µM.

Consider `CC(C)c1cn(Cc2ccc(S(C)(=N)=O)cc2)c2nc(CC(F)(F)F)nn2c1=O` (single isomer, unassigned) [Compound 32A], for which the dissociation constant (Kd) at human CA-I (CA1) [3] and at human CA-II (CA2) [2] was over 100000 µM each time. Moreover, the EC50 is 0.00631 µM at Human ENPP1 [1] and 0.0794 µM in data set [4].

With `Cc1cc(Cn2cc(C(C)C)c(=O)n3nc(C4CC4)nc23)ccc1S(C)(=N)=O` (stereo not drawn) [Compound 71, 2-Cyclopropyl-6-isopropyl-4-(3-methyl-4-(S-methylsulfonimidoyl)benzyl)-[1,2,4]triazolo[1,5-a]pyrimidin-7(4H)-one], the EC50 was 0.251 µM in data set [4] and 0.00316 µM on Human ENPP1 [5].

As for `CCc1nc2n(Cc3ccc(S(C)(=N)=O)cc3)cc(C(C)C)c(=O)n2n1` (racemic) [31 Rac], the dissociation constant (Kd) on human CA-I (CA1) [3] and on human CA-II (CA2) [2] was over 100000 µM throughout.

On to `Cc1cc(Cn2cc(C(C)C)c(=O)n3nc(C4CC4)nc23)ccc1[S@](C)(=N)=O` (single isomer, unassigned) [Compound 65], for which the results for the EC50 (in data set [4]; on Human ENPP1 [5]) were 0.0398 µM and 0.00158 µM, respectively.

`CC(C)c1cn(Cc2ccc([S@@](C)(=N)=O)cc2)c2cc(C3CC3)nn2c1=O` (single isomer, unassigned) [Compound 3B] had a dissociation constant (Kd) on human CA-II (CA2) [2] of over 100000 µM.

`CCc1nc2n(Cc3ccc([S@@](C)(=N)=O)cc3)cc(C(C)C)c(=O)n2n1` (single isomer, unassigned) [Compound 31A]: the Kd at human CA-I (CA1) [3] and at human CA-II (CA2) [2] was over 100000 µM each time.

Consider `CC(C)c1cn(Cc2ccc(S(=N)(=O)C3CC3)cc2)c2nc(C3CC3)nn2c1=O` (stereo not drawn) [Compound 54, 4-(4-(Cyclopropanesulfonimidoyl)benzyl)-2-cyclopropyl-6-isopropyl-[1,2,4]triazolo[1,5-a]pyrimidin-7(4H)-one], for which the concentration giving a half-maximal response (EC50) in data set [4] was 0.0398 µM; at Human ENPP1 [5], 0.00126 µM.

The compound `CC(C)c1cn(Cc2ccc([S@](C)(=N)=O)cc2)c2cc(C3CC3)nn2c1=O` (single isomer, unassigned) [Compound 3A] registered a Kd at human CA-II (CA2) [2] of over 100000 µM.

`CC(C)c1cn(Cc2ccc([S@@](=N)(=O)C3CC3)cc2)c2nc(C3CC3)nn2c1=O` (single isomer, unassigned) [Compound 55]: the EC50 in data set [4] is 0.0251 µM; on Human ENPP1 [5], 0.000316 µM.

As for `CC[S@](=N)(=O)c1ccc(Cn2cc(C(C)C)c(=O)n3nc(C4CC4)nc23)cc1` (single isomer, unassigned) [Compound 56A], the 50% effective concentration (EC50) in data set [4] is 0.0398 µM; at Human ENPP1 [5], 0.001 µM.

Turning to `CC(C)c1cn(Cc2ccc([S@@](C)(=N)=O)cc2)c2nc(CC(F)(F)F)nn2c1=O` (single isomer, unassigned) [Compound 32B], the equilibrium dissociation constant (Kd) on human CA-I (CA1) [3] and at human CA-II (CA2) [2] was over 100000 µM each time.

For the compound `Cc1cc(Cn2cc(C(C)C)c(=O)n3nc(C4CC4)cc23)ccc1S(C)(=N)=O` (racemic) [58 Rac], on human CA-I (CA1) [3], the Kd is over 100000 µM. At Human ENPP1 [1], the response was half-maximal at 0.002 µM (EC50).

As for `CC(C)c1cn(Cc2ccc(S(N)(=O)=O)cc2)c2nc(C3CC3)nn2c1=O` [Compound 11, 4-((2-cyclopropyl-6-isopropyl-7-oxo-[1,2,4]triazolo[1,5-a]pyrimidin-4(7H)-yl)methyl)benzenesulfonamide], the “Bone mineralization of the bone cortex (X-ray, tibia / knee joints)” value in the data set on Alpl^Prx1 mouse (male and female mice, oral in diet, 100 days) was “increased bone mineralization”. The “Plasma chemistry (significant changes; transaminase, amylase, BUN, Ca)” value with Alpl^Prx1 mouse (male mice, WT, control and treated) was “only observed between WT and HPP mice”. In the data set with Alpl^Prx1 mouse (oral in diet, 100 days), the “Mineralization of L3 vertebrate bone (bone morphometry, Von Kossa)” value is recorded as “increased to the levels of wild-type mice” and the “Mineralization of trabecular bones of the distal femur (bone morphometry, Von Kossa)” value is on record as “slight improvement in mineralization”. Besides, in the data set on Alpl^Prx1 mouse (setting [8]), the “Plasma AP levels” value was “did not affect”, the “Plasma OPN levels” value is “did not affect” and the “Plasma PPi levels” value is listed as “reduced to the levels of WT mice”.

Take `Cc1cc2n(Cc3ccc(S(C)(=N)=O)cc3)cc(C(C)C)c(=O)n2n1` (single isomer, unassigned) [Compound 9A]: the dissociation constant (Kd) at human CA-I (CA1) [3] and on human CA-II (CA2) [2] was over 100000 µM each time.

With `CC(C)c1nc2n(Cc3ccc(S(C)(=N)=O)cc3)cc(C(C)C)c(=O)n2n1` (stereo not drawn) [Compound 30, 2,6-diisopropyl-4-(4-(S-methylsulfonimidoyl)benzyl)-[1,2,4]triazolo[1,5-a]pyrimidin-7(4H)-one], the “CA2 human SPR pKD” value at human CA-II (CA2) [6] is on record as under 1. At human CA-I (CA1) [7], the “CA1 human SPR pKD” value is given as under 1. Also, the concentration giving a half-maximal response (EC50) was 0.0794 µM in data set [4] and 0.00398 µM on Human ENPP1 [5].

With `CC(C)c1cn(C[C@H]2C[C@H]3C[C@@H]2CN3S(N)(=O)=O)c2nc(C(F)(F)F)nn2c1=O` (racemic) [Compound 36, rac-(1R,4R,5R)-5-((6-isopropyl-7-oxo-2-(trifluoromethyl)-[1,2,4]triazolo[1,5-a]pyrimidin-4(7H)-yl)methyl)-2-azabicyclo[2.2.1]heptane-2-sulfonamide], the Kd at human CA-I (CA1) [3] was over 100000 µM.

`CC(C)c1cn(Cc2ccc([S@](C)(=N)=O)c(F)c2)c2cc(C3CC3)nn2c1=O` (single isomer, unassigned) [Compound 72]: the results for the 50% effective concentration (EC50) (in data set [4]; on Human ENPP1 [5]) were 0.2 µM and 0.00251 µM, respectively.

For `Cc1cc(Cn2cc(C(C)C)c(=O)n3nc(C4CC4)cc23)ccc1[S@@](C)(=N)=O` (single isomer, unassigned) [Compound 58A], the 50% effective concentration (EC50) was 0.2 µM in data set [4] and 0.00126 µM on Human ENPP1 [5].

Compound `CC(C)c1cn(C[C@@H]2C[C@@H]3C[C@H]2CN3S(N)(=O)=O)c2ncnn2c1=O` [Compound 37, (1R,4R,5R)-5-((6-isopropyl-7-oxo-[1,2,4]triazolo[1,5-a]pyrimidin-4(7H)-yl)methyl)-2-azabicyclo[2.2.1]heptane-2-sulfonamide] showed a Kd on human CA-I (CA1) [3] of over 100000 µM.

As to `Cc1cc2n(Cc3ccc(S(C)(=N)=O)cc3)cc(C(C)C)c(=O)n2n1` (racemic) [9 Rac], the Kd at human CA-I (CA1) [3] and on human CA-II (CA2) [2] was over 100000 µM throughout.

Take `CC(C)c1cn(Cc2ccc(S(C)(=N)=O)cc2)c2nc(CC(F)(F)F)nn2c1=O` (racemic) [32 Rac]: the equilibrium dissociation constant (Kd) on human CA-I (CA1) [3] and at human CA-II (CA2) [2] was over 100000 µM in each case. This compound also had an EC50 on Human ENPP1 [1] of 0.00794 µM.

Turning to `CC(C)c1cn(Cc2ccc(S(C)(=N)=O)cc2)c2cc(C3CC3)nn2c1=O` (racemic) [3 Rac], the Kd on human CA-II (CA2) [2] was over 100000 µM.

Consider `CCc1nc2n(Cc3ccc([S@](C)(=N)=O)cc3)cc(C(C)C)c(=O)n2n1` (single isomer, unassigned) [Compound 31B], for which the dissociation constant (Kd) at human CA-I (CA1) [3] and at human CA-II (CA2) [2] was over 100000 µM in each case.

In the case of `CC(C)c1cn(Cc2ccc(S(N)(=O)=O)c(-c3ccccc3)n2)c2nc(C3CC3)nn2c1=O` [Compound 27, 6-((2-cyclopropyl-6-isopropyl-7-oxo-[1,2,4]triazolo[1,5-a]pyrimidin-4(7H)-yl)methyl)-2-phenylpyridine-3-sulfonamide], the “CA2 human SPR pKD” value on human CA-II (CA2) [6] worked out at 3.0. Besides, at human CA-I (CA1) [7], the “CA1 human SPR pKD” value is recorded as 3.0. In addition, the EC50 in data set [4] is 0.251 µM; at Human ENPP1 [5], 0.00631 µM.
